This note sets out measurements from patent publication US20110086834A1, “ALKYNYL ALCOHOLS AS KINASE INHIBITORS” (AMGEN INC., priority 2008, published 2011).

The target in the test is T1, NIK (Homo sapiens, UniProt Q99558).
T1 construct: Both assays utilize a truncated form of NIK containing only the catalytic domain; made in house; host or cells: baculovirus expression system (insect cells implied)
Put plainly: homogenous time resolved fluorescence (HTRF) assay for NIK Ki measurement. The class given is biochemical. The note with it: truncated NIK (catalytic domain only), autophosphorylation; 10 nM enzyme; 20, 100, 200 or 500 μM ATP; room temperature, 2 hours; read-out: Ki activity in the homogenous time resolved fluorescence (HTRF) assay for NIK. As for the experimental part:
Two formats of biochemical assays are implemented: (1) chemiluminescent (CL) assay for NIK IC50 determination; (2) homogenous time resolved fluorescence (HTRF) assay for NIK Ki measurement. […] The NIK proteins are purified with baculovirus expression system and further biotinylated with N-hydroxysuccinamide biotin ester (Sigma). […] The reaction mixtures are then immobilized on a Streptavidin-coated plate (Pierce). […] For the HTRF assay, 10 nM of enzyme are incubated with compounds in the presence of 20, 100, 200, or 500 μM of ATP in a buffer with 20 mM of Hepes pH7.5, 20 mM of MgCl2, 0.2% of Tween 20 and 1 mM of DTT at room temperature for 2 hours.
For orientation: TR-FRET usually uses a lanthanide donor and a delayed reading to cut background.

Bounds are passed on as bounds.

T1 sequence (Q99558 400-655 limits assumed): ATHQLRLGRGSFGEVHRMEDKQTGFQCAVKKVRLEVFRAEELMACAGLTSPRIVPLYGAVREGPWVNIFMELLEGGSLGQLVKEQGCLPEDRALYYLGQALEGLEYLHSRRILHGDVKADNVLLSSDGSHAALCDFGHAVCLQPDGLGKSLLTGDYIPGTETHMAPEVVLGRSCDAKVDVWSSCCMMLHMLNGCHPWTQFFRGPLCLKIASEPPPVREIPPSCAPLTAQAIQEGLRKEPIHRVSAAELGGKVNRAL

Regarding `CN1CC[C@@]2(C1)CN(c1nc(N)ncc1Cl)c1cc(C#C[C@@](C)(O)c3nccs3)ccc12` (relative stereo) [Example 195, (2R)-4-((3R*)-1-(2-Amino-5-chloro-4-pyrimidinyl)-1′-methyl-1,2-dihydrospiro[indole-3,3′-pyrrolidin]-6-yl)-2-(1,3-thiazol-2-yl)-3-butyn-2-ol], the inhibition constant Ki was less than 1000 nM.
On to `CN1CC[C@]2(C1)CN(c1nc(N)ncc1Cl)c1cc(C#C[C@@](C)(O)c3nccs3)ccc12` (relative stereo) [Example 197, (2R)-4-((3S*)-1-(2-Amino-5-chloro-4-pyrimidinyl)-1′-methyl-1,2-dihydrospiro[indole-3,3′-pyrrolidin]-6-yl)-2-(1,3-thiazol-2-yl)-3-butyn-2-ol], for which the Ki was less than 1000 nM.
The value for `C[C@@](O)(C#Cc1ccc2c(c1)N(c1nc(N)ncc1Cl)C[C@@]21CCOC1)c1nccs1` (relative stereo) [Example 200, (2R)-4-((3R*)-1′-(2-Amino-5-chloro-4-pyrimidinyl)-1′,2′,4,5-tetrahydrospiro[furan-3,3′-indol]-6′-yl)-2-(1,3-thiazol-2-yl)-3-butyn-2-ol] was less than 1000 nM; that for `Cc1cc([C@@](C)(O)C#Cc2ccc3c(c2)N(c2nc(N)ncc2Cl)CC3)no1` (single isomer, unassigned) [Example 24] was 1000 to 30000 nM.
The same measure for `Cc1cc([C@](C)(O)C#Cc2ccc3c(c2)N(c2nc(N)ncc2Cl)CC3)no1` (single isomer, unassigned) [Example 25]: less than 1000 nM.
The value for `Cc1cc([C@@](C)(O)C#Cc2ccc3c(c2)N(c2nc(N)ncc2Cl)CC3)on1` (single isomer, unassigned) [Example 28] was 1000 to 30000 nM; that for `Cc1cc([C@](C)(O)C#Cc2ccc3c(c2)N(c2nc(N)ncc2Cl)CC3)on1` (single isomer, unassigned) [Example 29] was less than 1000 nM; that for `Cc1cc([C@@](C)(O)C#Cc2ccc3c(c2)N(c2nc(N)ncc2Cl)CC32CCOCC2)on1` (single isomer, unassigned) [Example 30] was less than 1000 nM.
With `Cc1cc([C@](C)(O)C#Cc2ccc3c(c2)N(c2nc(N)ncc2Cl)CC32CCOCC2)on1` (single isomer, unassigned) [Example 31], the inhibition constant (Ki) is less than 1000 nM.
With `CC1(C)CN(c2nc(N)ncc2Cl)c2cc(C#C[C@@](C)(O)c3nccs3)ccc21` (single isomer, unassigned) [Example 40], the inhibitory constant (Ki) was less than 1000 nM.
Take `CC1(C)CN(c2nc(N)ncc2Cl)c2cc(C#C[C@](C)(O)c3nccs3)ccc21` (single isomer, unassigned) [Example 41]: the Ki is 1000 to 30000 nM.
The same measure for `Cn1cncc1C(O)C#Cc1ccc2c(c1)N(c1nc(N)ncc1Cl)CC2(C)C` (single isomer, unassigned) [Example 42, (1R*)-3-(1-(2-amino-5-chloro-4-pyrimidinyl)-3,3-dimethyl-2,3-dihydro-1H-indol-6-yl)-1-(1-methyl-1H-imidazol-5-yl)-2-propyn-1-ol]: 1000 to 30000 nM; for `Cn1cnc([C@H](O)C#Cc2ccc3c(c2)N(c2nc(N)ncc2Cl)CC3(C)C)c1` (single isomer, unassigned) [Example 47, (1R*)-3-(1-(2-amino-5-chloro-4-pyrimidinyl)-3,3-dimethyl-2,3-dihydro-1H-indol-6-yl)-1-(1-methyl-1H-imidazol-4-yl)-2-propyn-1-ol]: less than 1000 nM; for `C[C@]1(CCO)CN(c2nc(N)ncc2Cl)c2cc(C#CC3(O)CCCC3)ccc21` (single isomer, unassigned) [Example 52, 1-(03R*)-1-(2-amino-5-chloro-4-pyrimidinyl)-3-(2-hydroxyethyl)-3-methyl-2,3-dihydro-1H-indol-6-yl)ethynyl)cyclopentanol]: less than 1000 nM.
The same measure for `CC(O)(C#Cc1ccc2c(c1)N(c1nc(N)ncc1Cl)CC2(C)CO)c1nccs1` (single isomer, unassigned) [Example 53, 4-((3 S*)-1-(2-amino-5-chloro-4-pyrimidinyl)-3-(hydroxymethyl)-3-methyl-2,3-dihydro-1H-indol-6-yl)-2-(1,3-thiazol-2-yl)-3-butyn-2-ol]: less than 1000 nM; for `CC1(CO)CN(c2nc(N)ncc2Cl)c2cc(C#CC3(O)CCCC3)ccc21` (single isomer, unassigned) [Example 55, 1-(((3R*)-1-(2-amino-5-chloro-4-pyrimidinyl)-3-(hydroxymethyl)-3-methyl-2,3-dihydro-1H-indol-6-yl)ethynyl)cyclopentanol]: less than 1000 nM.
The same measure for `CC(C)(C#Cc1ccc2c(c1)N(c1nc(N)ncc1Cl)CC2(C)CO)C(=O)OCc1ccccc1` (single isomer, unassigned) [Example 57, benzyl 4-((3S*)-1-(2-amino-5-chloro-4-pyrimidinyl)-3-(hydroxymethyl)-3-methyl-2,3-dihydro-1H-indol-6-yl)-2,2-dimethyl-3-butynoate]: less than 1000 nM; for `CC(C)(C#Cc1ccc2c(c1)N(c1nc(N)ncc1Cl)CC2(C)CO)CO` (single isomer, unassigned) [Example 58, 4-((3S*)-1-(2-amino-5-chloro-4-pyrimidinyl)-3-(hydroxymethyl)-3-methyl-2,3-dihydro-1H-indol-6-yl)-2,2-dimethyl-3-Butyn-1-ol]: less than 1000 nM.
As for `C[C@@](O)(C#Cc1ccc2c(c1)N(c1nc(N)ncc1Cl)CC2(CO)CO)c1nccs1` (single isomer, unassigned) [Example 61], the inhibition constant (Ki) was less than 1000 nM.
The value for `COCC1(C)CN(c2nc(N)nc3[nH]cnc23)c2cc(C#CC3(O)CCCC3)ccc21` (single isomer, unassigned) [Example 70, 1-(((3R*)-1-(2-amino-9H-purin-6-yl)-3-(methoxymethyl)-3-methyl-2,3-dihydro-1H-indol-6-yl)ethynyl)cyclopentanol] was less than 1000 nM.
In the case of `C[C@@](O)(C#Cc1ccc2c(c1)N(c1nc(N)ncc1Cl)CC21COC1)c1nccs1` (single isomer, unassigned) [Example 82], the Ki is less than 1000 nM.
In the case of `COCCN(C)C1CCn2c1c(-c1ccncn1)c1cc(C#CC(C)(O)c3nccs3)ccc12` (single isomer, unassigned) [Example 87, 4-((R*)-1-((2-methoxyethyl)(methyl)amino)-9-(pyrimidin-4-yl)-2,3-dihydro-1H-pyrrolo[1,2-a]indol-7-yl)-2-(thiazol-2-yl)but-3-yn-2-ol], the inhibitory constant (Ki) is less than 1000 nM.
Regarding `COCCOc1ccc(C#C[C@](C)(O)c2cc(C)on2)cc1Nc1nc(N)ncc1Cl` (single isomer, unassigned) [Example 178], the Ki is 1000 to 30000 nM.
The value for `COCCOc1ccc(C#C[C@@](C)(O)c2cc(C)on2)cc1Nc1nc(N)ncc1Cl` (single isomer, unassigned) [Example 179] was less than 1000 nM; that for `CN1CC2(C1)CN(c1nc(N)ncc1Cl)c1cc(C#CC(C)(O)c3nccs3)ccc12` (single isomer, unassigned) [Example 182a, (2S*)-4-(1′-(2-Amino-5-chloro-4-pyrimidinyl)-1-methyl-1′,2′-dihydrospiro[azetidine-3,3′-indol]-6′-yl)-2-(1,3-thiazol-2-yl)-3-Butyn-2-ol] was 1000 to 30000 nM.
Turning to `CN1CC2(C1)CN(c1nc(N)ncc1Cl)c1cc(C#C[C@@](C)(O)c3nccs3)ccc12` (single isomer, unassigned) [Example 182b, (2R*)-4-(1′-(2-Amino-5-chloro-4-pyrimidinyl)-1-methyl-1′,2′-dihydrospiro[azetidine-3,3′-indol]-6′-yl)-2-(1,3-thiazol-2-yl)-3-butyn-2-ol], the inhibition constant (Ki) was less than 1000 nM.
The value for `CN1CCC2(C1)CN(c1nc(N)ncc1Cl)c1cc(C#CC3(O)CCCC3)ccc12` (single isomer, unassigned) [Example 192, 1-(((3S*)-1-(2-Amino-5-chloro-4-pyrimidinyl)-1′-methyl-1,2-dihydrospiro[indole-3,3′-pyrrolidin]-6-yl)ethynyl)cyclopentanol] was less than 1000 nM; that for `CN1CCC2(C1)CN(c1nc(N)ncc1Cl)c1cc(C#C[C@](C)(O)c3nccs3)ccc12` (single isomer, unassigned) [Example 194, (2S)-4-((3R*)-1-(2-Amino-5-chloro-4-pyrimidinyl)-1′-methyl-1,2-dihydrospiro[indole-3,3′-pyrrolidin]-6-yl)-2-(1,3-thiazol-2-yl)-3-butyn-2-ol] was 1000 to 30000 nM.
For the compound `C[C@](O)(C#Cc1ccc2c(c1)N(c1nc(N)ncc1Cl)CC21CCOC1)c1nccs1` (single isomer, unassigned) [Example 201, (2S)-4-((3S*)-1′-(2-Amino-5-chloro-4-pyrimidinyl)-1′,2′,4,5-tetrahydrospiro[furan-3,3′-indol]-6′-yl)-2-(1,3-thiazol-2-yl)-3-butyn-2-ol], the inhibition constant Ki lay within 1000 to 30000 nM.
The value for `Cc1cc(C(C)(O)C#Cc2ccc3c(c2)N(c2nc(N)ncc2Cl)C[C@@]32CCOC2)no1` (single isomer, unassigned) [Example 203, 4-((3R*)-1′-(2-Amino-5-chloro-4-pyrimidinyl)-1′,2′,4,5-tetrahydrospiro[furan-3,3′-indol]-6′-yl)-2-(5-methyl-3-isoxazolyl)-3-butyn-2-ol] was less than 1000 nM; that for `Cc1cc(C(C)(O)C#Cc2ccc3c(c2)N(c2nc(N)ncc2Cl)CC32CCOC2)no1` (single isomer, unassigned) [Example 204, 4-((3S*)-1′-(2-Amino-5-chloro-4-pyrimidinyl)-1′,2′,4,5-tetrahydrospiro[furan-3,3′-indol]-6′-yl)-2-(5-methyl-3-isoxazolyl)-3-butyn-2-ol] was less than 1000 nM; that for `C[C@@](O)(C#Cc1ccc2c(c1)N(c1nc(N)ncc1Cl)CC21CCOCC1)c1nccs1` (single isomer, unassigned) [Example 209] was less than 1000 nM.

As a reminder, the Ki is the equilibrium dissociation constant of an inhibitor or competing ligand from its target.
